7 molecules from ChEMBL document CHEMBL4480391, “Discovery and synthesis of sulfur-containing 6-substituted 5,8-dimethoxy-1,4-naphthoquinone oxime derivatives as new and potential anti-MDR cancer agents” (Eur J Med Chem, 2019) can be followed below.

One data set concerns HCT-15. In words: Cytotoxicity against human HCT15 cells after 72 hrs by MTT assay. In kind it is functional, cell-based. As to conditions: HCT-15, 72 h.
The next data set has as its system MGC-803. The data set can be described thus: Cytotoxicity against human MGC803 cells after 72 hrs by MTT assay. It counts as functional, cell-based. The settings on record: MGC-803, 72 h. (Tetrazolium dyes change colour on reduction, which living cells bring about.)
For the next data set, the system named is K562. The data set can be described thus: Cytotoxicity against human K562 cells after 72 hrs by MTT assay. It counts as functional, cell-based. As to conditions: K562, 72 h.
The nature of data set [1]: Cytotoxicity against human HSF cells after 72 hrs by MTT assay. In kind it is cell-based.
A short description of data set [2]: Selectivity index, ratio of IC50 for human HSF cells to IC50 for human HCT15 cells. It counts as toxicity. The settings on record: HSF cells versus HCT15 cells, read-out: Ratio IC50.
Data set [3] can be described thus: Cytotoxicity against human […] cells after 72 hrs by MTT assay. In kind it is functional, cell-based.
For the next data set, the system named is Bel7402/5-FU. In words: Cytotoxicity against human Bel7402/5-FU cells after 72 hrs by MTT assay. It counts as functional, cell-based.
Another data set relates to MCF7. The data set can be described thus: Cytotoxicity against human MCF7 cells after 72 hrs by MTT assay. It counts as functional, cell-based. As to conditions: MCF7, 72 h.
Another data set concerns NCI/ADR-RES. In words: Cytotoxicity against human MCF7/ADR cells after 72 hrs by MTT assay. It counts as functional, cell-based.
The subject of the next data set is A549. In words: Cytotoxicity against human A549 cells after 72 hrs by MTT assay. In kind it is functional, cell-based. As to conditions: A549, 72 h.
Another data set concerns A549/TR. The data set can be described thus: Cytotoxicity against human A549/TAX cells after 72 hrs by MTT assay. It counts as functional, cell-based.
The nature of data set [4]: Selectivity ratio of IC50 for human […] cells to IC50 for human Bel7402/5-FU cells. It counts as functional.
Data set [5] in a line: Selectivity ratio of IC50 for human MCF7 cells to IC50 for human MCF7/ADR cells. It counts as functional.
Data set [6] is described as follows: Selectivity ratio of IC50 for human A549 cells to IC50 for human A549/TAX cells. It counts as functional.

Molecules are shown by their SMILES. Bounds are passed on as bounds.

Consider `CCCCCCCCC(SC(=O)c1ccc(OC)c(OC)c1)c1cc(OC)c2c(c1OC)/C(=N/O)C=C/C2=N\O` (stereo not drawn), for which the 50% inhibitory concentration (IC50) (as a rule, the midpoint of a concentration-inhibition curve) is 460 nM with HCT-15; 950 nM in the data set on MGC-803; 750 nM with K562; more than 50000 nM in data set [1]; 740 nM in [3]; 570 nM in the data set on Bel7402/5-FU. The IC50 amounted to 13100 nM with MCF7, 2630 nM in the data set with NCI/ADR-RES, 10400 nM with A549 and 960 nM in the data set with A549/TR. For the same molecule, the selectivity ratio in [2] is more than 109. Also, the “Ratio IC50” value in data set [4] turned out to be 1.3; in [5] it was 4.97; in data set [6], 10.9.
On to `CCCCCCCC(SCCC(C)C)c1cc(OC)c2c(c1OC)/C(=N/O)C=C/C2=N\O` (stereo not drawn), for which the 50% inhibitory concentration (IC50) in the data set on HCT-15 was 820 nM; with MGC-803, 1350 nM; with K562 it was 1000 nM; in data set [1], more than 50000 nM; in [3] it was 4470 nM; in the data set with Bel7402/5-FU it was 2920 nM. For the same molecule, the 50% inhibitory concentration (IC50) with MCF7 is 38600 nM; in the data set on NCI/ADR-RES it was 18500 nM; in the data set with A549, 24300 nM; in the data set on A549/TR, 4520 nM. In [2], the selectivity ratio is more than 61. For the same molecule, the figures for the “Ratio IC50” value in data set [4], in data set [5] and in [6] were 1.53, 2.09 and 5.38, respectively.
Consider `CCCCCCCCC(SCCC(C)C)c1cc(OC)c2c(c1OC)/C(=N/O)C=C/C2=N\O` (stereo not drawn), for which the half-maximal inhibitory concentration (IC50) in the data set on HCT-15 is 540 nM; in the data set on MGC-803 it was 1090 nM; with K562, 760 nM; in [1], more than 50000 nM; in data set [3], 2310 nM; with Bel7402/5-FU it was 730 nM. In addition, the 50% inhibitory concentration (IC50) in the data set on MCF7 is 33600 nM; in the data set on NCI/ADR-RES it was 14000 nM; in the data set with A549, 18900 nM; with A549/TR, 1180 nM. The selectivity ratio in [2] is more than 92.6. Further, the “Ratio IC50” value in data set [4] worked out at 3.16; in data set [5] it was 2.41; in [6] it was 16.
As for `CCCCCCCCC(SC(=O)c1cc(OC)c(OC)c(OC)c1)c1cc(OC)c2c(c1OC)/C(=N/O)C=C/C2=N\O` (stereo not drawn), the IC50 with HCT-15 was 500 nM; in the data set on MGC-803 it was 910 nM; in the data set on K562 it was 680 nM; in [1], more than 50000 nM; in data set [3], 560 nM; with Bel7402/5-FU, 310 nM. Besides, the concentration for half-maximal inhibition (IC50) in the data set with MCF7 was determined as 14800 nM; with NCI/ADR-RES, 2470 nM; with A549 it was 9280 nM; with A549/TR, 810 nM. Moreover, the selectivity ratio in [2] was more than 100. The “Ratio IC50” value in data set [4] came out at 1.81; in data set [5] it was 6.01; in [6], 11.5.
For the molecule `CCCCCCCCC(SC(=O)c1ccc(C)cc1)c1cc(OC)c2c(c1OC)/C(=N/O)C=C/C2=N\O` (stereo not drawn), the concentration for half-maximal inhibition (IC50) in the data set on HCT-15 was 530 nM; in the data set on MGC-803, 940 nM; in the data set with K562 it was 970 nM; in data set [1] it was more than 50000 nM; in [3], 930 nM; with Bel7402/5-FU it was 760 nM. In addition, the 50% inhibitory concentration (IC50) in the data set on MCF7 was 18800 nM; in the data set with NCI/ADR-RES, 3980 nM; with A549, 13900 nM; in the data set with A549/TR it was 1820 nM. Moreover, the selectivity ratio in data set [2] is more than 94.3. Besides, the “Ratio IC50” value stood at 1.22 in [4], 4.74 in data set [5] and 7.62 in [6].
For `CCCCCCCC(SC(=O)c1cc(OC)c(OC)c(OC)c1)c1cc(OC)c2c(c1OC)/C(=N/O)C=C/C2=N\O` (stereo not drawn), the IC50 in the data set with HCT-15 is 980 nM; in the data set with MGC-803, 1210 nM; in the data set with K562, 850 nM; in data set [1] it was more than 50000 nM; in [3], 2960 nM; in the data set on Bel7402/5-FU, 1560 nM. Further, the concentration for half-maximal inhibition (IC50) was found to be 20700 nM with MCF7, 7880 nM in the data set with NCI/ADR-RES, 17900 nM with A549 and 2250 nM with A549/TR. Besides, in [2], the selectivity ratio is more than 51. The results for the “Ratio IC50” value in data set [4], in data set [5] and in data set [6] were 1.9, 2.7 and 7.96, respectively.
Take `CCCCCCCCCC(SC(=O)c1cc(OC)c(OC)c(OC)c1)c1cc(OC)c2c(c1OC)/C(=N/O)C=C/C2=N\O` (stereo not drawn): the IC50 in the data set on HCT-15 is 820 nM; with MGC-803, 1250 nM; in the data set on K562, 790 nM; in data set [1], more than 50000 nM; in data set [3], 1340 nM; in the data set on Bel7402/5-FU, 1120 nM. Also, the IC50 with MCF7 was 19300 nM; with NCI/ADR-RES, 5480 nM; with A549, 16100 nM; with A549/TR it was 1010 nM. In addition, the selectivity ratio in data set [2] was more than 61. Also, the “Ratio IC50” value was determined as 1.2 in data set [4], 3.51 in [5] and 15.9 in [6].
